Assay results as given in patent publication EP4782437A1, “HETEROARYL COMPOUND, AND PREPARATION METHOD THEREFOR AND USE THEREOF IN MEDICINE” (Jiangsu Hengrui Pharmaceuticals Co., Ltd., priority 2023, dated 2025).
Read-outs that look alike come from different tables or passages of the source.

Assays:
hERG potassium channels [1] = molecular target: T1, hERG potassium channels (Homo sapiens, UniProt Q12809); experiment: hERG channel inhibition, automated patch-clamp in HEK293-hERG stable transfected cell line; conditions: read-out: IC50 values of blocking effects on hERG potassium currents, whole-cell patch-clamp, tail currents
T1 sequence (Q12809 whole entry): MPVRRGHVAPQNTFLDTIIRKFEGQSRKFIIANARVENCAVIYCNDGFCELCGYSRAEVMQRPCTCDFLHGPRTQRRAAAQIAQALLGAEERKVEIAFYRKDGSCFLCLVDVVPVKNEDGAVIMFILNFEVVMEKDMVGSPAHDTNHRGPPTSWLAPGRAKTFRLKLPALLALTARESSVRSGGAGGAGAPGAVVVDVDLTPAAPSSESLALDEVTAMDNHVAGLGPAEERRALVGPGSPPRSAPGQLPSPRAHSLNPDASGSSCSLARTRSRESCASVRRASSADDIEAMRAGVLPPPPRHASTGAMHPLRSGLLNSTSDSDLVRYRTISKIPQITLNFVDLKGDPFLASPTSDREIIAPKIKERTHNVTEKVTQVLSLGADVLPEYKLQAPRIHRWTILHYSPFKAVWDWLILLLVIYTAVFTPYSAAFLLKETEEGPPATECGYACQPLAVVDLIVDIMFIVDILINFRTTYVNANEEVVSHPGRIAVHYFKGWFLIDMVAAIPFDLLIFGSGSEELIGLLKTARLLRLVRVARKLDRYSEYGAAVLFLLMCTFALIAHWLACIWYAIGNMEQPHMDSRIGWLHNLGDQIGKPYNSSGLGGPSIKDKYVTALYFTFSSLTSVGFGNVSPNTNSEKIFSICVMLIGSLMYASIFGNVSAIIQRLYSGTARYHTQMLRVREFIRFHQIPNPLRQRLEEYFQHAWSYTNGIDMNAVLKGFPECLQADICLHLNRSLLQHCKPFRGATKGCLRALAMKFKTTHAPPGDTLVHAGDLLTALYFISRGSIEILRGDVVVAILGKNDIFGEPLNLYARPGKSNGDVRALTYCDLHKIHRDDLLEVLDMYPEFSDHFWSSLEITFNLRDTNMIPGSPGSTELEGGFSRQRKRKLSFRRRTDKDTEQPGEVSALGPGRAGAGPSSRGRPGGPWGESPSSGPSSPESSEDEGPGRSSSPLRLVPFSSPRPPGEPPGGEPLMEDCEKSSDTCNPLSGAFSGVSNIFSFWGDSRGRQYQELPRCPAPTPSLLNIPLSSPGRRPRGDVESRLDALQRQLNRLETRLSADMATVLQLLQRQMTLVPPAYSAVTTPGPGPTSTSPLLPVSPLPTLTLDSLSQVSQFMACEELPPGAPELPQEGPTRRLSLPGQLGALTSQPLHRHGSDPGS

hERG potassium channels [2] = molecular target: T1, hERG potassium channels; experiment: cell-based
[3] = molecular target: T2, BTK recombinant human protein (Homo sapiens, UniProt Q06187); experiment: Inhibitory activity against BTK (HTRF KinEASE-TK kit); assay type: biochemical
T2 construct: purchased Thermo PV3363
T2 sequence (Q06187 whole entry): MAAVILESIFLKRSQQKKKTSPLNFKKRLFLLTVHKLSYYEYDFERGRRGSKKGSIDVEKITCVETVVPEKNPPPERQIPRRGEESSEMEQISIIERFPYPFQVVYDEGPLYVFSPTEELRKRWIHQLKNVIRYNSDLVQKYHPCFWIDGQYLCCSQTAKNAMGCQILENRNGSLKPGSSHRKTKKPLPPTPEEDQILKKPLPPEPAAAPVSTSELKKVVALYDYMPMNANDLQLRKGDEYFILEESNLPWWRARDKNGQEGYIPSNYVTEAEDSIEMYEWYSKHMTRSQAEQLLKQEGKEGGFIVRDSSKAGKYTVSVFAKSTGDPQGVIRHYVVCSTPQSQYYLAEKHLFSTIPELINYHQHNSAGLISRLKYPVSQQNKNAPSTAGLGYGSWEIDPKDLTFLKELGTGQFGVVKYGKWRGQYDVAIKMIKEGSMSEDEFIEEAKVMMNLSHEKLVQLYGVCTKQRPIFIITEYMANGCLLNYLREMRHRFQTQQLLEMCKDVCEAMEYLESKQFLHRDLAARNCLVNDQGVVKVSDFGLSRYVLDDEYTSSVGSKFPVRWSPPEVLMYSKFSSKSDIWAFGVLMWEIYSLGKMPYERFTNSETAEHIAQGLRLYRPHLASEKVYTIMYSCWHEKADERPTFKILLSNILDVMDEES
Experimental: Test example 1: Inhibitory activity of compounds of the present disclosure against BTK • I. Experimental materials and instruments • 1. BTK recombinant human protein (Thermo, PV3363) • 2. HTRF KinEASE-TK kit (Cisbio, 62TK0PEC) • 3. 1 M MgCl2 (Thermo, AM9530G) • 4. 1 M MnCl2 (Sigma, M1787-100ML) • 5. Adenosine 5'-triphosphate (ATP) (New England Biolabs, P0756L) • 6. DTT 2M (Sangon Biotech, B645939) • 7. Ultrapure water (Invitrogen, 10977-015) • 8. OptiPlate-384, white opaque 384-well microplate (PerkinElmer, 6007290) • 9. 96-well round-bottom plate (Corning, 3788) • 10. Biochemical incubator (Shanghai Boxun Medical & Biological Instruments Co., Ltd., BSP-100) • 11. 15-mL centrifuge tube (Corning) • 12. Benchtop high-speed centrifuge (Changsha Yingtai Instrument Co., Ltd., TD4N) • 13. Multifunctional microplate reader (PerkinElmer, EnVision) • 14. Bravo liquid handling platform (Agilent Technologies, SGC120TH34702) • II. Experimental procedure
The HTRF KinEASE-TK kit is designed to detect changes in BTK enzyme activity based on two technologies, i.e., fluorescence resonance energy transfer and time-resolved fluorescence. The kit is operated in two stages: 1) enzyme reaction stage: the enzyme reaction is initiated by adding ATP, where the enzyme phosphorylates the substrate, and the compounds are then added to competitively bind to BTK against ATP, thereby inhibiting substrate phosphorylation; and 2) detection stage: after the enzyme reaction is complete, a detection reagent is added to terminate the reaction. Different groups on the phosphorylated substrate bind to the energy donor and energy acceptor, respectively, bringing the two into close proximity. During the instrumental readout, the energy donor is excited by an external light source, which enables resonance energy transfer to the proximal energy acceptor. The acceptor, in turn, becomes excited and emits light at a specific wavelength. Thus, changes in enzyme activity can be detected by measuring the signal values, and the inhibition rate of the compounds against the target enzyme can be calculated, thereby evaluating the inhibitory effect of the compounds on BTK enzyme activity.
Preparation of enzyme reaction buffer: 5× Kinase Buffer was diluted 5-fold with ultrapure water, and then the stock solutions of MgCl2, MnCl2 and DTT were added. The final composition of the buffer was as follows: 1× Kinase Buffer, 10 mM MgCl2, 1 mM MnCl2, and 1 mM DTT.
(§1) Preparation of 5 × BTK working solution: The BTK (5.17 µM) stock solution was removed from -20°C storage. Given that the BTK concentration in the enzyme reaction system was 2 nM and the concentration of the 5× working solution was 10 nM, the BTK stock solution was diluted 517-fold with the enzyme reaction buffer according to the volume required for the experiment. The diluted solution was then added to the 384-well plate at 2 µL per well. The plate was placed in a plate spinner and centrifuged at 2000 rpm for 1 minute to bring the liquid to the bottom of the wells.
as §1, with “[…]. Given” for “Preparation of 5 × BTK working solution: The BTK (5.17 µM) stock solution was removed from -20°C storage. Given”, “the SEB” for “the BTK”, “was 50” for “was 2”, “was 250” for “was 10”, “diluted 10-fold” for “diluted 517-fold”
The test compounds dissolved in 100% DMSO at 20 mM were diluted with 100% DMSO to a concentration of 200 µM, which represents the 200× concentration of the highest compound concentration point in the reaction system. The compounds at this concentration were then subjected to 10-point 3-fold serial dilution with 100% DMSO. The positive control wells and negative control wells were set with 100% DMSO. […]

[4] = system: B cell activation in human whole blood; experiment: Inhibition of B cell activation in human whole blood (CD69 expression, flow cytometry); assay type: cell-based; conditions: anti-human IgD 30 µg/ml + IL-4 5 ng/ml, 18 hours, CD69-positive CD19-positive B cells, read-out: IC50 values of inhibitory activity against B cell activation in human whole blood
Text: Test example 2: Inhibitory activity of compounds of the present disclosure against B cell activation in human whole blood • I. Experimental materials and instruments • 1. Human whole blood (internal recruitment) • 2. Goat F(ab')2 anti-human IgD-UNLB (SouthernBiotech, 2032-01) • 3. DPBS (1x) (Gibco, 14190-144) • 4. Recombinant human IL-4 (Peprotech, 200-04) • 5. Brilliant Violet 421™ anti-human CD19 antibody (Biolegend, 302234) • 6. APC anti-human CD69 antibody (Biolegend, 310910) • 7. APC mouse IgG1, κ isotype control antibody (Biolegend, 400120) • 8. eBioscience™ 10X RBC lysis buffer (multi-species) (Thermo, 004300-54) • 9. NEST 96-well deep-well plate (Wuxi NEST Biotechnology Co., Ltd., 503501) • 10. 96-well round-bottom plate (Corning, 3788) • 11. 96-well flat-bottom plate (Corning, 3599) • 12. Attune™ NxT acoustic focusing cytometer (ThermoFisher Scientific, 4.2.0) • 13. Cell incubator (Thermo, Forma steri-cycle i160) • II. Experimental procedure
B cells express the B cell receptor (BCR) complex on their surface. When B cells in human whole blood are induced to activate, they can trigger the downstream signalling pathways of the receptor and express the activation marker CD69. The expression of CD69 in activated B cells was detected by flow cytometry, and the IC50 of the compounds were calculated to evaluate the effects of the compounds on BCR activation.
The test compounds dissolved in 100% DMSO at 20 mM were diluted with 100% DMSO to a concentration of 1 mM, which represents the 200× concentration of the highest compound concentration point in the reaction system. The compounds at this concentration were then subjected to 8-point 4-fold serial dilution with 100% DMSO. The positive control wells were set with 100% DMSO, whereas the negative control wells were set with Remiburtinib at a final concentration of 5 µM. The serially diluted compounds and 100% DMSO were further diluted 10-fold in PBS to achieve the 20× concentration, followed by thorough mixing.
After thorough mixing, the whole blood sample was transferred to a loading reservoir and then dispensed into a 96-well flat-bottom plate at 80 µl per well. The compound dilution was dispensed at 5 µl per well. The 11th column of each row was designated as the negative control well, with 5 µl of 100 µM positive control drug added to each well. After thorough mixing for 5 min, the plate was incubated in a 37°C incubator for 30 min. Human IgD antibody was diluted 1.67-fold with PBS to a concentration of 300 µg/mL, and 10 µl of the diluted solution was added to each well of the culture plate (final concentration: 30 µg/ml). Human IL-4 (stock solution at 50 µg/ml) was diluted 500-fold with PBS to a concentration of 100 ng/mL, and 5 µl of the diluted solution was added to each well of the culture plate (final concentration: 5 ng/ml). After thorough mixing for 5 min, the plate was cultured in a 37°C incubator with 5% CO2 for 18 hours.
Flow cytometry detection: CD69-APC, CD19-BV421 and CD4-APC antibodies, and the isotype control antibodies for CD69-APC were removed from 4°C storage. Each antibody was added at 1 µl per well. After thorough mixing for 5 min, the plate was incubated for 30 min at 4°C (refrigerator) in the dark for staining. The 10X RBC lysis buffer was diluted in water to prepare 1X RBC lysis buffer. Aliquots of 1 ml of the lysis buffer were dispensed into each well of a 96-well deep-well plate in advance. The stained samples were transferred into the deep-well plate containing the lysis buffer for erythrocyte lysis. After completing the transfer of an entire plate, the plate was incubated in the dark for 15-20 min. Upon completion of lysis, the plate was centrifuged at 2000 rpm for 4 min. Each well was washed with 1 ml of PBS. Subsequently, the cells were resuspended in 200 µl of PBS, transferred to a 96-well plate, and washed twice more using the same procedure. The samples were resuspended in 200 µl of PBS per well and then subjected to flow cytometry detection. […]

[5] = 2 nM BTK, 10 µM ATP, 0.5 hours preincubation at 25°C; read-out: IC50 values of inhibitory activity against BTK

Row | Structure (SMILES) | IC50 (hERG potassium channels [1]) [nM] | IC50 (hERG potassium channels [2]) [nM] | IC50 [3, 5] [nM] | IC50 [4] [nM] | IC50 ([3]; read-out: IC50 values of inhibitory activity against BTK; 2 nM BTK, 10 µM ATP, 0.5 hours preincubation at 25°C) [nM]
1 | C=C(C)C(=O)NCCOc1c(N)ncnc1-c1cc(F)cc(NC(=O)c2ccc3c(c2F)OC(C)(C)C3)c1C [Example 4, N-(3-(6-amino-5-(2-(N-methacrylamido)ethoxy)pyrimidin-4-yl)-5-fluoro-2-methylphenyl)-7-fluoro-2,2-dimethyl-2,3-dihydrobenzofuran-6-carboxamide] | 15500 | – | – | – | –
2 | C=CC(=O)N1C[C@H](F)C[C@H]1COc1c(N)ncnc1-c1cc(F)cc(NC(=O)c2ccc3c(c2F)OCC3(C)C)c1C [Example 32, N-(3-(5-(((2S,4R)-1-acryloyl-4-fluoropyrrolidin-2-yl)methoxy)-6-aminopyrimidin-4-yl)-5-fluoro-2-methylphenyl)-7-fluoro-3,3-dimethyl-2,3-dihydrobenzofuran-6-carboxamide] | – | 12000 | 1.56 | 10 to 100 | –
3 | C=CC(=O)N(C)CCOc1c(N)ncnc1-c1cc(F)cc(NC(=O)c2ccc3c(c2)OCC3(C)C)c1C [Example 27, N-(3-(6-amino-5-(2-(N-methacrylamido)ethoxy)pyrimidin-4-yl)-5-fluoro-2-methylphenyl)-3,3-dimethyl-2,3-dihydrobenzofuran-6-carboxamide] | – | 12000 | 7.52 | 10 to 100 | –
4 | C=CC(=O)N(C)CCOc1c(N)ncnc1-c1cc(F)cc(NC(=O)c2cc3c(cc2F)C(C)(C)CO3)c1C [Example 8, N-(3-(6-amino-5-(2-(N-methacrylamido)ethoxy)pyrimidin-4-yl)-5-fluoro-2-methylphenyl)-5-fluoro-3,3-dimethyl-2,3-dihydrobenzofuran-6-carboxamide] | – | 10000 | 6.2 | 10 to 100 | –
5 | C=CC(=O)N(CCF)CCOc1c(N)ncnc1-c1cc(F)cc(NC(=O)c2ccc3c(c2F)OCC3(C)C)c1C [Example 30, N-(3-(6-amino-5-(2-(N-(2-fluoroethyl)acrylamido)ethoxy)pyrimidin-4-yl)-5-fluoro-2-methylphenyl)-7-fluoro-3,3-dimethyl-2,3-dihydrobenzofuran-6-carboxamide] | – | 20000 | 1.55 | 10 to 100 | –
6 | [2H]C([2H])(CN(C)C(=O)C=C)Oc1c(N)ncnc1-c1cc(F)cc(NC(=O)c2ccc3c(c2F)OCC3(C)C)c1C [Example 28, N-(3-(6-amino-5-(2-(N-methacrylamido)ethoxy-1,1-d2)pyrimidin-4-yl)-5-fluoro-2-methylphenyl)-7-fluoro-3,3-dimethyl-2,3-dihydrobenzofuran-6-carboxamide] | – | 14000 | 2.12 | 10 to 100 | –
7 | C=CC(=O)N(C)CCOc1c(N)ncnc1-c1cc(F)cc(NC(=O)c2cc3c(cc2F)C2(CC3)CC2)c1CO [Example 11, N-(3-(6-amino-5-(2-(N-methacrylamido)ethoxy)pyrimidin-4-yl)-5-fluoro-2-(hydroxymethyl)phenyl)-6'-fluoro-2',3'-dihydrospiro[cyclopropane-1,1'-indene]-5'-carboxamide] | – | – | – | 10 to 100 | 4.2
8 | C=CC(=O)N1CCC[C@H]1COc1c(N)ncnc1-c1cc(F)cc(NC(=O)c2ccc3c(c2F)OCC3(C)C)c1C [Example 31, (S)-N-(3-(5-((1-acryloylpyrrolidin-2-yl)methoxy)-6-aminopyrimidin-4-yl)-5-fluoro-2-methylphenyl)-7-fluoro-3,3-dimethyl-2,3-dihydrobenzofuran-6-carboxamide] | – | – | 0.7 | 10 to 100 | –
9 | C=CC(=O)N(C)CCOc1c(N)ncnc1-c1cc(F)cc(NC(=O)c2ccc3c(c2F)OCC3(C)C)c1C [Example 7, N-(3-(6-amino-5-(2-(N-methacrylamido)ethoxy)pyrimidin-4-yl)-5-fluoro-2-methylphenyl)-7-fluoro-3,3-dimethyl-2,3-dihydrobenzofuran-6-carboxamide] | – | 17000 | 3 | 10 to 100 | –
10 | C=CC(=O)N(CC)CCOc1c(N)ncnc1-c1cc(F)cc(NC(=O)c2ccc3c(c2F)OCC3(C)C)c1C [Example 29, N-(3-(6-amino-5-(2-(N-ethylacrylamido)ethoxy)pyrimidin-4-yl)-5-fluoro-2-methylphenyl)-7-fluoro-3,3-dimethyl-2,3-dihydrobenzofuran-6-carboxamide] | – | 16000 | 1.73 | 10 to 100 | –
